From PubChem BioAssay AID2060504 (Molecular Pharmacology Branch, DTP, NCI, 2025)
Several values for one entry are separate records, joined by “and”; a condition that tells them apart may be missing. Identical values can stand only once.

Tested on: 636577-100-R-J1-PDC complex spheroid viability
Test: Anticancer human tumor 636577-100-R-J1-PDC patient-derived endometrial adenocarcinoma cell line growth inhibition [GQUAD]
Details: for viability, T/C: stronger effect = lower value
Description: DNA G-quadruplex Stabilizer Agents in Combinations in Complex Spheroids
A high-throughput screen of multi-cell type tumor spheroids was designed to identify active combinations of DNA G-quadruplex stabilizer agents and targeted small molecules. Complex spheroids include a stromal component modeled by human endothelial cells (HUVEC) and fibroblasts modeled by human mesenchymal stem cells (MSCs). The concentration ranges selected for each drug and investigational agent were based upon clinically achievable concentrations if the clinical Cmax of the agent was known.
Compounds. The drugs and investigational agents: pidnarulex (CX-5461; NSC782164), APTO-253 (NSC789042), BRACO-19 (NSC847499), peposertib (NSC802822), ceralasertib (NSC780249), elimusertib (NSC800525), camonsertib (NSC841442), AZD-1390 (NSC803789), olaparib (NSC753686), talazoparib (NSC767125), ART-558 (NSC835418), sotorasib (NSC818433), MRTX-1133 (NSC836407), SN-38 (NSC673596), topotecan (NSC609699), etoposide (NSC141540), doxorubicin (NSC123127), gemcitabine (NSC613327), 5-fluorouracil (NSC19893), paclitaxel (NSC125973), vemurafenib (NSC761431), panobinostat (NSC761190), R-306465 (JNJ-16241199; NSC773264), adavosertib (NSC754352), TP-3654 (NSC805149), carboplatin (NSC241240), KSQ-4279 (NSC840948), and staurosporine (NSC755774) were obtained from the National Cancer Institute (NCI) Developmental Therapeutics Program Chemical Repository (34). The FDA-approved anticancer drug set is available from the NCI Developmental Therapeutics Program. […] The stock solutions were prepared in dimethyl sulfoxide (DMSO, Sigma-Aldrich, St. Louis, MO, cat. D2650) at 800-fold the tested concentration and stored at -70 degrees C prior to their use. All drugs and investigational agents were tested over a range starting from a high concentration at or near the clinical Cmax and decreasing in half-log increments. If the clinical Cmax for an agent had not been determined, the highest concentration tested was 10 microM.
2.3 Cell Culture. All cells were maintained in an incubator at 37 degrees C and 5% CO2 with 95% humidity. The PDC lines were cultured according to standard operating procedures established by the NCI PDMR. All PDCs were thawed and cultured in Matrigel-coated flasks prepared with a working solution of 1X Ham's F-12 nutrient mix, without supplementation (Invitrogen, cat. 11765054), 100 U/mL penicillin-streptomycin (Invitrogen, cat. 15140122), and 2.5% Matrigel (Corning Inc., cat. 354248) for the first three passages. The 857933-349-R-J2-PDC line was cultured in 6C/Colon 1B media, which includes advanced DMEM/F-12 (Thermo Fisher Scientific, cat. 12634028), 10 mM HEPES (Thermo Fisher Scientific, cat. 15630080), 1X GlutaMAX supplement (Thermo Fisher Scientific, cat. 35050061), 0.1 mg/mL primocin (InvivoGen, cat. ant-pm-2), 10% defined fetal bovine serum, heat inactivated (HyClone Laboratories Inc., cat. SH30070.03HI), 50% L-WRN conditioned media (ATCC, cat. CRL-3276), 1.25 mM N-Acetyl-L-cysteine (Sigma-Aldrich, cat. A9165), 10 mM nicotinamide (Sigma-Aldrich, cat. N0636), 1X B-27 supplement (Thermo Fisher Scientific, cat. 17504044), 1X N-2 supplement (Thermo Fisher Scientific, cat. 17502048), 10 microM Y-27632 dihydrochloride (Tocris Bioscience, cat. 1254), and 50 ng/mL human EGF recombinant protein (Thermo Fisher Scientific, cat. PHG0311). The 485176-168-R4-J1-PDC line was cultured in Panc media, which includes all 6C/Colon 1B media components plus 100 ng/mL human FGF-10 (Thermo Fisher Scientific, cat. 100-26), 500 nM SB-431542 (Selleckchem, cat. S1067), and gastrin (Tocris, cat. 3006).
[…]

[1] = curve of first compound, second compound 0.0316 µM
[2] = curve of first compound, second compound 0.1 µM
[3] = curve of first compound, second compound 0.316 µM
[4] = curve of first compound, second compound 1 µM
[5] = curve of first compound, second compound 3.16 µM
[6] = curve of first compound, second compound 10 µM
[7] = second compound 0.0316 µM, first compound 0.0316 µM
[8] = second compound 0.0316 µM, first compound 0.1 µM
[9] = second compound 0.0316 µM, first compound 0.316 µM
[10] = second compound 0.0316 µM, first compound 1 µM
[11] = second compound 0.0316 µM, first compound 3.16 µM
[12] = second compound 0.0316 µM, first compound 10 µM
[13] = second compound 0.1 µM, first compound 0.0316 µM
[14] = second compound 0.1 µM, first compound 0.1 µM
[15] = second compound 0.1 µM, first compound 0.316 µM
[16] = second compound 0.1 µM, first compound 1 µM
[17] = second compound 0.1 µM, first compound 3.16 µM
[18] = second compound 0.1 µM, first compound 10 µM
[19] = second compound 0.316 µM, first compound 0.0316 µM
[20] = second compound 0.316 µM, first compound 0.1 µM
[21] = second compound 0.316 µM, first compound 0.316 µM
[22] = second compound 0.316 µM, first compound 1 µM
[23] = second compound 0.316 µM, first compound 3.16 µM
[24] = second compound 0.316 µM, first compound 10 µM
[25] = second compound 1 µM, first compound 0.0316 µM
[26] = second compound 1 µM, first compound 0.1 µM
[27] = second compound 1 µM, first compound 0.316 µM
[28] = second compound 1 µM, first compound 1 µM
[29] = second compound 1 µM, first compound 3.16 µM
[30] = second compound 1 µM, first compound 10 µM
[31] = second compound 3.16 µM, first compound 0.0316 µM
[32] = second compound 3.16 µM, first compound 0.1 µM
[33] = second compound 3.16 µM, first compound 0.316 µM
[34] = second compound 3.16 µM, first compound 1 µM
[35] = second compound 3.16 µM, first compound 3.16 µM
[36] = second compound 3.16 µM, first compound 10 µM
[37] = second compound 10 µM, first compound 0.0316 µM
[38] = second compound 10 µM, first compound 0.1 µM
[39] = second compound 10 µM, first compound 0.316 µM
[40] = second compound 10 µM, first compound 1 µM
[41] = second compound 10 µM, first compound 3.16 µM
[42] = second compound 10 µM, first compound 10 µM
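Further: viability read after seven days of drug exposure.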
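Wherever viability, T/C is given: luminescence signal used as a proxy for viable cells; 100% = DMSO vehicle control wells.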

CC(C)(O)C1CCC(Nc2ccc3ncc(-c4cccc(C(F)(F)F)c4)n3n2)CC1 (stereo unspecified) + Cc1cnc(CNC(=O)c2c(=O)c3ccc(N4CCCN(C)CC4)nc3n3c2sc2ccccc23)cn1
IC50 [1]: 358 nM | IC50 [2]: < 31.6 nM | IC50 [3]: < 31.6 nM | IC50 [4]: < 31.6 nM | IC50 [5]: < 31.6 nM | IC50 [6]: < 31.6 nM | viability, T/C [7]: 52.8% | viability, T/C [8]: 51.1% | viability, T/C [9]: 51.6% | viability, T/C [10]: 37.6% | viability, T/C [11]: 22% | viability, T/C [12]: 21.3% | viability, T/C [13]: 28.9% | viability, T/C [14]: 32.1% | viability, T/C [15]: 32.7% | viability, T/C [16]: 29.3% | viability, T/C [17]: 16.6% | viability, T/C [18]: 18.6% | viability, T/C [19]: 25.3% | viability, T/C [20]: 28.4% | viability, T/C [21]: 27.2% | viability, T/C [22]: 24.4% | viability, T/C [23]: 18.2% | viability, T/C [24]: 16% | viability, T/C [25]: 17.9% | viability, T/C [26]: 27.1% | viability, T/C [27]: 25.6% | viability, T/C [28]: 22.4% | viability, T/C [29]: 18.7% | viability, T/C [30]: 13.9% | viability, T/C [31]: 19.7% | viability, T/C [32]: 22.3% | viability, T/C [33]: 25.1% | viability, T/C [34]: 23.3% | viability, T/C [35]: 12.7% | viability, T/C [36]: 7.93% | viability, T/C [37]: 19.2% | viability, T/C [38]: 24.1% | viability, T/C [39]: 24.4% | viability, T/C [40]: 21.3% | viability, T/C [41]: 0.12% | viability, T/C [42]: 0.11%

CC1COCCN1c1cc(-c2ccnn2C)c2ccnc(-c3ccn[nH]3)c2n1 (stereo unspecified) + Cc1cnc(CNC(=O)c2c(=O)c3ccc(N4CCCN(C)CC4)nc3n3c2sc2ccccc23)cn1
IC50 [1]: < 31.6 nM | IC50 [2]: < 31.6 nM | IC50 [3]: < 31.6 nM | IC50 [4]: < 31.6 nM | IC50 [5]: < 31.6 nM | IC50 [6]: < 31.6 nM | viability, T/C [7]: 31.9% | viability, T/C [8]: 20.2% | viability, T/C [9]: 18.4% | viability, T/C [10]: 9.61% | viability, T/C [11]: 5.71% | viability, T/C [12]: 3.77% | viability, T/C [13]: 22.7% | viability, T/C [14]: 19.2% | viability, T/C [15]: 17.2% | viability, T/C [16]: 11.2% | viability, T/C [17]: 6.18% | viability, T/C [18]: 3.47% | viability, T/C [19]: 15.1% | viability, T/C [20]: 19.7% | viability, T/C [21]: 17.7% | viability, T/C [22]: 12.5% | viability, T/C [23]: 6.51% | viability, T/C [24]: 2.82% | viability, T/C [25]: 17.9% | viability, T/C [26]: 18.9% | viability, T/C [27]: 15.6% | viability, T/C [28]: 14.7% | viability, T/C [29]: 7.08% | viability, T/C [30]: 3.42% | viability, T/C [31]: 18.9% | viability, T/C [32]: 17.4% | viability, T/C [33]: 16.8% | viability, T/C [34]: 14% | viability, T/C [35]: 7.38% | viability, T/C [36]: 3.36% | viability, T/C [37]: 16.8% | viability, T/C [38]: 16.6% | viability, T/C [39]: 17.2% | viability, T/C [40]: 10.1% | viability, T/C [41]: 6.54% | viability, T/C [42]: 3.1%

COc1cc(C2c3cc4c(cc3C(OC3OC5COC(C)OC5C(O)C3O)C3COC(=O)C23)OCO4)cc(OC)c1O (stereo unspecified)
viability, T/C (compound 0.0316 µM): 80.7% and 81.6% and 73.5% | viability, T/C (compound 0.1 µM): 43.7% and 40.4% and 34.9% | viability, T/C (compound 0.316 µM): 24.3% and 21.7% and 21.6% | viability, T/C (compound 1 µM): 18.6% and 19% and 17.9% | viability, T/C (compound 3.16 µM): 15.4% and 13.9% and 16.5% | viability, T/C (compound 10 µM): 13% and 12.7% and 13.3% | IC50 (curve of compound): 81.9 nM and 76.2 nM and 64 nM
